Several values for one entry are separate records, joined by “and”; a condition that tells them apart may be missing. Equal entries are not always repeated.
What was measured:
Experiment in all cases: 5-day Cell Titer Glo viability and Bliss score
[1] = tested on: MiaPaca2 KRAS G12C resistant clone 23; type: cell-based; conditions: 5-day CTG
Experimental: (§1) For G12C resistant clone generation, MiaPaca2 parent cells were cultured with increasing concentrations of AMG510 (up to 1μM) over time. The viable cells were re-fed fresh media containing AMG510 weekly. Once the AMG510 resistant cells were growing at normal rates in the presence of 1μM AMG510, they were cloned by limiting dilution. Eight clones were selected for continued passage and further experiments.

[2] = tested on: MiaPaca2 KRAS G12C resistant clone 28; type: cell-based; conditions: 5-day CTG
Experimental: as §1

[3] = tested on: MiaPaca2 KRAS G12C resistant clone 7; type: cell-based; conditions: 5-day CTG; for % viability, Pemi 1 μM: Pemi alone
Experimental: as §1

MiaPaca2 cells = tested on: MiaPaca2 cells
Experimental: For synergy experiments, cells were seeded in RPMI medium with 10% HI FBS at a density of 500 cells/well in Greiner, white, clear bottom, 384-well tissue culture treated plates containing 10x10 combination matrices of compound. Plates were incubated at 37° C., 5% CO2 for 5 days. On day 5, Cell Titer Glo reagent was added to the plates and ATP luminescence was detected using a Pherastar FSX reader. The synergy score for the combination effect was calculated using a Bliss score model where the Bliss score=Yab−(Ya+Yb−(YaYb))×100, where Ya and Yb are the monotherapies. Bliss scores >20 are strongly synergistic and a higher Bliss scores indicates a higher level of synergism.

[4] = Average, G12C i 111 nM + Pemi 1 μM

CCN1C(=O)N(c2c(F)c(OC)cc(OC)c2F)Cc2cnc3[nH]c(CN4CCOCC4)cc3c21 [Pemigatinib, 3-(2,6-difluoro-3,5-dimethoxyphenyl)-1-ethyl-8-(morpholin-4-ylmethyl)-1,3,4,7-tetrahydro-2H-pyrrolo[3′,2′:5,6]pyrido[4,3-d]pyrimidin-2-one]
% viability, Together ([1]; G12C i 111 nM + Pemi 1 μM): 74.9% | BLISS Score ([1]; G12C i 111 nM + Pemi 1 μM): 16.1 | % viability, Pemi 1 μM ([1]; Pemi alone): 100.1% | % viability, Together ([2]; G12C i 111 nM + Pemi 1 μM): 32.4% | BLISS Score ([2]; G12C i 111 nM + Pemi 1 μM): 21.8 | % viability, Pemi 1 μM ([2]; Pemi alone): 78% | % viability, Together [3, 4]: 54.6% | BLISS Score [3, 4]: 15.0 | % viability, Pemi 1 μM ([3]; Average): 101.1% | % viability, Together ([3]; G12C i 111 nM + Pemi 1 μM, single experiments): 63% and 53% and 47.7% | % viability, Pemi 1 μM ([3]; single experiments): 104% and 106% and 93.4% | BLISS Score (MiaPaca2 cells; MIA PaCa2, Pemi 12 nM + KRAS G12C i 0.15 nM, 5 day CTG): −16.39 | BLISS Score (MiaPaca2 cells; MIA PaCa2, Pemi 12 nM + KRAS G12C i 0.46 nM, 5 day CTG): −9.92 | BLISS Score (MiaPaca2 cells; MIA PaCa2, Pemi 12 nM + KRAS G12C i 1.37 nM, 5 day CTG): −4.50 | BLISS Score (MiaPaca2 cells; MIA PaCa2, Pemi 12 nM + KRAS G12C i 4.12 nM, 5 day CTG): −1.78 | BLISS Score (MiaPaca2 cells; MIA PaCa2, Pemi 12 nM + KRAS G12C i 12.35 nM, 5 day CTG): −1.91 | BLISS Score (MiaPaca2 cells; MIA PaCa2, Pemi 12 nM + KRAS G12C i 37.04 nM, 5 day CTG): 1.33 | BLISS Score (MiaPaca2 cells; MIA PaCa2, Pemi 12 nM + KRAS G12C i 111.11 nM, 5 day CTG): 0.06 | BLISS Score (MiaPaca2 cells; MIA PaCa2, Pemi 12 nM + KRAS G12C i 333.33 nM, 5 day CTG): 0.73 | BLISS Score (MiaPaca2 cells; MIA PaCa2, Pemi 12 nM + KRAS G12C i 1000.00 nM, 5 day CTG): 0.29 | BLISS Score (MiaPaca2 cells; MIA PaCa2, Pemi 37 nM + KRAS G12C i 0.15 nM, 5 day CTG): −13.53 | BLISS Score (MiaPaca2 cells; MIA PaCa2, Pemi 37 nM + KRAS G12C i 0.46 nM, 5 day CTG): −5.08 | BLISS Score (MiaPaca2 cells; MIA PaCa2, Pemi 37 nM + KRAS G12C i 1.37 nM, 5 day CTG): 6.72 | BLISS Score (MiaPaca2 cells; MIA PaCa2, Pemi 37 nM + KRAS G12C i 4.12 nM, 5 day CTG): 4.25 | BLISS Score (MiaPaca2 cells; MIA PaCa2, Pemi 37 nM + KRAS G12C i 12.35 nM, 5 day CTG): 3.06 | BLISS Score (MiaPaca2 cells; MIA PaCa2, Pemi 37 nM + KRAS G12C i 37.04 nM, 5 day CTG): 5.01 | BLISS Score (MiaPaca2 cells; MIA PaCa2, Pemi 37 nM + KRAS G12C i 111.11 nM, 5 day CTG): 3.10 | BLISS Score (MiaPaca2 cells; MIA PaCa2, Pemi 37 nM + KRAS G12C i 333.33 nM, 5 day CTG): 2.88 | BLISS Score (MiaPaca2 cells; MIA PaCa2, Pemi 37 nM + KRAS G12C i 1000.00 nM, 5 day CTG): 2.69 | BLISS Score (MiaPaca2 cells; MIA PaCa2, Pemi 111 nM + KRAS G12C i 0.15 nM, 5 day CTG): −10.62 | BLISS Score (MiaPaca2 cells; MIA PaCa2, Pemi 111 nM + KRAS G12C i 0.46 nM, 5 day CTG): −7.15 | BLISS Score (MiaPaca2 cells; MIA PaCa2, Pemi 111 nM + KRAS G12C i 1.37 nM, 5 day CTG): 9.38 | BLISS Score (MiaPaca2 cells; MIA PaCa2, Pemi 111 nM + KRAS G12C i 4.12 nM, 5 day CTG): 4.70 | BLISS Score (MiaPaca2 cells; MIA PaCa2, Pemi 111 nM + KRAS G12C i 12.35 nM, 5 day CTG): 4.83 | BLISS Score (MiaPaca2 cells; MIA PaCa2, Pemi 111 nM + KRAS G12C i 37.04 nM, 5 day CTG): 6.56 | BLISS Score (MiaPaca2 cells; MIA PaCa2, Pemi 111 nM + KRAS G12C i 111.11 nM, 5 day CTG): 4.31 | BLISS Score (MiaPaca2 cells; MIA PaCa2, Pemi 111 nM + KRAS G12C i 333.33 nM, 5 day CTG): 3.66 | BLISS Score (MiaPaca2 cells; MIA PaCa2, Pemi 111 nM + KRAS G12C i 1000.00 nM, 5 day CTG): 4.56 | BLISS Score (MiaPaca2 cells; MIA PaCa2, Pemi 333 nM + KRAS G12C i 0.15 nM, 5 day CTG): −12.96 | BLISS Score (MiaPaca2 cells; MIA PaCa2, Pemi 333 nM + KRAS G12C i 0.46 nM, 5 day CTG): −5.77 | BLISS Score (MiaPaca2 cells; MIA PaCa2, Pemi 333 nM + KRAS G12C i 1.37 nM, 5 day CTG): 11.10 | BLISS Score (MiaPaca2 cells; MIA PaCa2, Pemi 333 nM + KRAS G12C i 4.12 nM, 5 day CTG): 7.47 | BLISS Score (MiaPaca2 cells; MIA PaCa2, Pemi 333 nM + KRAS G12C i 12.35 nM, 5 day CTG): 3.76 | BLISS Score (MiaPaca2 cells; MIA PaCa2, Pemi 333 nM + KRAS G12C i 37.04 nM, 5 day CTG): 6.27 | BLISS Score (MiaPaca2 cells; MIA PaCa2, Pemi 333 nM + KRAS G12C i 111.11 nM, 5 day CTG): 4.88 | BLISS Score (MiaPaca2 cells; MIA PaCa2, Pemi 333 nM + KRAS G12C i 333.33 nM, 5 day CTG): 3.97 | BLISS Score (MiaPaca2 cells; MIA PaCa2, Pemi 333 nM + KRAS G12C i 1000.00 nM, 5 day CTG): 2.38 | BLISS Score (MiaPaca2 cells; MIA PaCa2, Pemi 1000 nM + KRAS G12C i 0.15 nM, 5 day CTG): −10.95 | BLISS Score (MiaPaca2 cells; MIA PaCa2, Pemi 1000 nM + KRAS G12C i 0.46 nM, 5 day CTG): −5.74 | BLISS Score (MiaPaca2 cells; MIA PaCa2, Pemi 1000 nM + KRAS G12C i 1.37 nM, 5 day CTG): 3.46 | BLISS Score (MiaPaca2 cells; MIA PaCa2, Pemi 1000 nM + KRAS G12C i 4.12 nM, 5 day CTG): 6.59 | BLISS Score (MiaPaca2 cells; MIA PaCa2, Pemi 1000 nM + KRAS G12C i 12.35 nM, 5 day CTG): 2.84 | BLISS Score (MiaPaca2 cells; MIA PaCa2, Pemi 1000 nM + KRAS G12C i 37.04 nM, 5 day CTG): 4.32 | BLISS Score (MiaPaca2 cells; MIA PaCa2, Pemi 1000 nM + KRAS G12C i 111.11 nM, 5 day CTG): 4.62 | BLISS Score (MiaPaca2 cells; MIA PaCa2, Pemi 1000 nM + KRAS G12C i 333.33 nM, 5 day CTG): 3.71 | BLISS Score (MiaPaca2 cells; MIA PaCa2, Pemi 1000 nM + KRAS G12C i 1000.00 nM, 5 day CTG): 4.32 | BLISS Score (MiaPaca2 cells; MIAPACA2, Average, G12C i 111 nM + Pemi 1 μM, 5-day CTG): 6.3 | BLISS Score (MiaPaca2 cells; MIAPACA2, G12C i 111 nM + Pemi 1 μM, 5-day CTG, single experiments): 8.8 and 5.6 and 4.6
